Data: patent publication US20180071280A1, “MODULATORS OF CELL DEATH PROCESSES” (URIFER LTD., priority 2015, published 2018)
Structures can show the parent of a compound that is named as a salt.

What was measured:
[1] = target: FLT3 (FMS-like tyrosine kinase 3) (Homo sapiens, UniProt P36888); assay: Kinase panel assay, FLT3; assay type: biochemical; conditions: above threshold
Protocol: (§1) Kinase panel assays were performed using the FRET-based Z′-LYTE, Lantha Screen and Adapta enzymatic kinase assay systems (Life Technologies, Carlsbad, Calif.), which were carried out using the SelectScreen Kinase Profiling Service (Life Technologies). The standard reaction contained 2 μM peptide substrate, ATP at the optimal assay concentration, 50 mM HEPES (pH 7.5), 0.01% Brij-35, 10 mM MgCl2, 1 mM EGTA, and the tested kinase. Each kinase was checked for its activity in duplicate data points (n=2) and was assayed following the detailed procedures outlined in the SelectScreen service. Percent inhibition or ATP displacement (For Lantha screen) represent a ratio of phosphorylated/ATP bound product formed in the presence of the compound compared with phosphorylated/ATP bound product formed in reactions containing 1% DMSO.
(§2) Kinome technique was used for monitoring phosphorylation events and phosphorylation targets of 0260-Fer interaction, using peptide arrays for human targets and phosphorylation-specific antibodies. Construction of peptide arrays relied on information from phosphorylation databases. The following proteins were determined as significant above the threshold of 40% kinase activity inhibition or ATP displacement to the Kinase domain site.

[2] = target: DAPK1 (Death-associated protein kinase 1) (Homo sapiens, UniProt P53355); assay: Kinase panel assay, DAPK1; assay type: biochemical; conditions: above threshold
Protocol: as §1, §2

Sequence of DAPK1 (Death-associated protein kinase 1) (P53355 whole entry): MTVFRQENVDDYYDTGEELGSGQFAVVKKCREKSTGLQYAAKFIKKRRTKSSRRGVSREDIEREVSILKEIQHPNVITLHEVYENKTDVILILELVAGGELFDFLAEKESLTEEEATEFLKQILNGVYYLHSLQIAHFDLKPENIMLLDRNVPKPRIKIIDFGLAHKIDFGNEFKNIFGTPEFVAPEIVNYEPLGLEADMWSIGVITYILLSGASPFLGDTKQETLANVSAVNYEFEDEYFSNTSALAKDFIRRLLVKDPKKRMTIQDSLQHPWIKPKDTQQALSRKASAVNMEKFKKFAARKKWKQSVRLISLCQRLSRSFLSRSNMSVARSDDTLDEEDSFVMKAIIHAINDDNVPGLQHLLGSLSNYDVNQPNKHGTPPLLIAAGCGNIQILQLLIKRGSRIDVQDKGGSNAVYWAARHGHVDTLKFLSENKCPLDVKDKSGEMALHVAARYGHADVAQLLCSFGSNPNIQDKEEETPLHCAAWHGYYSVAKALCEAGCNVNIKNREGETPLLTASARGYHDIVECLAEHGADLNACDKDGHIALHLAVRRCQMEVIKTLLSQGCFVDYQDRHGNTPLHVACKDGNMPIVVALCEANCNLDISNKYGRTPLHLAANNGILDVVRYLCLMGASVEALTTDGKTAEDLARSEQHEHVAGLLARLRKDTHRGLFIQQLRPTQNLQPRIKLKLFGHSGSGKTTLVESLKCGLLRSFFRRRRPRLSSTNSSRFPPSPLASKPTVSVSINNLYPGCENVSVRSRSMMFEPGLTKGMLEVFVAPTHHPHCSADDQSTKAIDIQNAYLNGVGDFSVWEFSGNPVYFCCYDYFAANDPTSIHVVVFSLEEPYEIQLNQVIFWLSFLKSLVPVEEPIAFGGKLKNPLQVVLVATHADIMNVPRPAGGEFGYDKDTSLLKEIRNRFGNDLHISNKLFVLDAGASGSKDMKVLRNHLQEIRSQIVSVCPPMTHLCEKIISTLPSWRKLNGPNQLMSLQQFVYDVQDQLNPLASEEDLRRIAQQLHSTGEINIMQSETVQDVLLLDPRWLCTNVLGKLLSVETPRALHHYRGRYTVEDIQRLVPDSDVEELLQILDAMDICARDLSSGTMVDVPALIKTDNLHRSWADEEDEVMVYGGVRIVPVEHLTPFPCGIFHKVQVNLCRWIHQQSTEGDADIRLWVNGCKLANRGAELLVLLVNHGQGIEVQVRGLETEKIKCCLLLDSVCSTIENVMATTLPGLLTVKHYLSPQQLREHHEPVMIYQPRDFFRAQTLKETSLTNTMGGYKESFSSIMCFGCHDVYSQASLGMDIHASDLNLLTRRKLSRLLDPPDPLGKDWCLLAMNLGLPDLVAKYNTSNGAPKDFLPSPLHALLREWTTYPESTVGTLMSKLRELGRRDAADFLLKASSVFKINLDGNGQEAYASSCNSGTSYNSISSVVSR
Sequence of FLT3 (FMS-like tyrosine kinase 3) (P36888 27-993): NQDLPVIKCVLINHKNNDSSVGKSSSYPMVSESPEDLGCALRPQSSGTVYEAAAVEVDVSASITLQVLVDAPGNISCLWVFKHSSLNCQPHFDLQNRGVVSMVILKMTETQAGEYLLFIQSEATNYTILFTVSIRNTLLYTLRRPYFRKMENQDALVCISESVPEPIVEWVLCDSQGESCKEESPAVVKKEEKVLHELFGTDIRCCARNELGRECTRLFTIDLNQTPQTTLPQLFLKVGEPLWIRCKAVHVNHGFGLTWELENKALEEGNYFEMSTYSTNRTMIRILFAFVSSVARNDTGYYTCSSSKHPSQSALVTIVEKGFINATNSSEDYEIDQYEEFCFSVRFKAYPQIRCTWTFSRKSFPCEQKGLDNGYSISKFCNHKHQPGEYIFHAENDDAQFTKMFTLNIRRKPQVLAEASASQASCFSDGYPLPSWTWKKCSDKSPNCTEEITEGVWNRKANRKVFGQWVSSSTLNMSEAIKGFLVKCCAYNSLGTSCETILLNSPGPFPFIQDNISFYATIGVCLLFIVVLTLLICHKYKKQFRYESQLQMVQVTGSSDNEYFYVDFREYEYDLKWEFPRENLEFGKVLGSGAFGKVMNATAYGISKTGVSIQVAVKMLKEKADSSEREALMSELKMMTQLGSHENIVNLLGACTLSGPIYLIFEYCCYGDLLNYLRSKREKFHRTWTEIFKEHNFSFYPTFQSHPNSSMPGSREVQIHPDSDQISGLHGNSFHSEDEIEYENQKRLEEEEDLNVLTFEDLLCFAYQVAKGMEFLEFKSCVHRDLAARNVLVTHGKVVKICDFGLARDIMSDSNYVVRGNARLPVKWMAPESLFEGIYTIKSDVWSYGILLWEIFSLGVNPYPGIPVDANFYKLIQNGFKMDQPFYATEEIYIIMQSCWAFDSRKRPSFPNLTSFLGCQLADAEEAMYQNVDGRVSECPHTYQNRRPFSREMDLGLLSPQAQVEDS

## CC(C)c1ccc(-c2cn3nc(N4CCC(CN5CCN(C)CC5)CC4)sc3n2)cc1 [compound 0260, tartarate salt of 6-(4-isopropyl-phenyl)-2-{4-[(4-methyl-piperazin-1-yl)methyl]piperidin-1-yl}-imidazo [2,1-b][1,3,4]thiadiazole]
[1]
  kinase activity inhibition or ATP displacement: > 40%
[2]
  kinase activity inhibition or ATP displacement: > 40%
